≈ marks a conversion by molar mass, not a printed value.

The results in this text go back to patent publication US9409905B2, “Antibacterial compounds and methods for use” (PTC THERAPEUTICS, INC., priority 2011, dated 2016).

For assay [1], the system named is Acinetobacter baumannii (A. baumannii) BAA747. The experiment in a line: Antibacterial activity, MIC (Table 4). Type of assay: cell-based. The conditions noted are these: A. baumannii BAA747, read-out: MIC, BAA747. The method in brief:
(§1)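 The resistant panel comprises multi-drug resistant clinical isolates. All strains were tested by microbroth dilution, with the MIC in μg/mL taken as the lowest concentration that prevented macroscopically visible growth.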

The test system of assay [2] is Klebsiella pneumoniae (K. pneumoniae) 35657. The experiment in a line: Antibacterial activity, MIC (Table 4). Particulars: K. pneumoniae 35657, read-out: MIC, 35657. It counts as cell-based. The method in brief: as §1
Assay [3] relates to Neisseria meningitidis (N. meningitidis) 13090. Description: Antibacterial activity, MIC (Table 8). Type of assay: cell-based. The procedure, abridged: (§2)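 Broth microdilution MIC, read as the lowest drug concentration preventing macroscopically visible growth under test conditions and reported in μg/mL.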
Assay [4] deals with Haemophilus influenzae (H. influenzae) 49247. The experiment in a line: Antibacterial activity, MIC (Table 6). Type of assay: cell-based. The procedure, abridged: as §2
The test system of assay [5] is Moraxella catarrhalis (M. catarrhalis) 25238. Description: Antibacterial activity, MIC (Table 7). Type of assay: cell-based. From the text:
The antibacterial activity from a microbroth dilution method may be presented as the minimum inhibitory concentration (MIC in μg/mL). The MIC value is the lowest concentration of drug which prevents macroscopically visible growth under test conditions.
Antibacterial activity of test compounds against the Gram-negative bacteria Haemophilus influenzae (H. influenzae) 49247 is shown in Table 6, Moraxella catarrhalis (M. catarrhalis) 25238 is shown in Table 7 and Neisseria meningitidis (N. meningitidis) 13090 is shown in Table 8.

Assay [6] relates to Pseudomonas aeruginosa (P. aeruginosa) 27853. The experiment in a line: Antibacterial activity, MIC (Table 5). It counts as cell-based. Particulars: P. aeruginosa 27853, read-out: MIC, 27853. The method in brief: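 MIC in μg/mL from broth microdilution; endpoint is the lowest drug level giving no visible growth.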
The subject of a further assay is E. coli LZ3111. The experiment in a line: Antibacterial activity, MIC, quinolone resistant strain (Table 2). The conditions noted are these: Escherichia coli, LZ3111, read-out: MIC LZ3111. It counts as cell-based. The method in brief: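 Lowest concentration giving no macroscopically visible growth was taken as the MIC (μg/mL) after microbroth dilution testing.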

The subject of the next assay is E. coli 25922. Description: Antibacterial activity, microbroth dilution MIC (Table 1). Type of assay: cell-based, Escherichia coli. Particulars: Escherichia coli; microbroth dilution; control Gram-negative E. coli 25922 strain; read-out: MIC, 25922. The procedure, abridged:
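Broth microdilution against S. aureus 29213, E. coli 25922 and hypersensitive E. coli BAS849. MIC in μg/mL is the lowest drug concentration preventing macroscopically visible growth under test conditions.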

The test system of another assay is A. baumannii MXX2240. The experiment in a line: Antibacterial activity, MIC, resistant strain (Table 4). Type of assay: cell-based. The conditions noted are these: Acinetobacter baumannii, MXX2240; resistant A. baumannii MMX2240, multi-drug resistant clinical isolate; read-out: MIC, MMX2240. The method in brief: as §1
The subject of the next assay is K. pneumoniae MXX1232. The assay is described as above. It counts as cell-based. Particulars: Klebsiella pneumoniae, MXX1232; resistant K. pneumoniae MMX1232, multi-drug resistant clinical isolate; read-out: MIC, MMX1232. The method in brief: as §1
In a further assay the test system is E. coli ELZ4000. Description: Antibacterial activity, MIC, multi-drug resistant clinical isolate (Table 3). It counts as cell-based. The conditions noted are these: Escherichia coli, ELZ4000, read-out: MIC ELZ4000. The procedure, abridged:
(§3)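 Growth inhibition is measured by microbroth dilution, and the minimum inhibitory concentration in μg/mL corresponds to the lowest drug level that prevents visible bacterial growth.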

The test system of the next assay is E. coli ELZ4251. The description is as above. Type of assay: cell-based. The conditions noted are these: Escherichia coli. The method in brief: as §3
Assay [7] relates to Escherichia coli (E. coli) BAS849. The experiment in a line: Antibacterial activity, microbroth dilution MIC (Table 1). It counts as cell-based. Particulars: microbroth dilution, super sensitive Gram-negative E. coli BAS849, read-out: MIC, BAS849. The procedure, abridged: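 Lowest concentration stopping macroscopically visible growth under test conditions, by broth microdilution, defines the MIC (μg/mL).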
In general terms: Broth dilution looks for growth in wells or tubes with falling amounts of substance.

The subject of assay [8] is Staphylococcus aureus (S. aureus) 29213. Described as above. Type of assay: cell-based. The conditions noted are these: microbroth dilution, Gram-positive S. aureus 29213, read-out: MIC, 29213. The procedure, abridged:
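Read-out: visual absence of growth. The lowest concentration meeting this gives the MIC, expressed in μg/mL, with microbroth dilution as the method.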

Regarding `CCc1c(-c2ccc3c(c2)cc(CN2CCC2)n3C)[nH]c(=O)c(C(=O)O)c1O` [Cpd 186, 6-(2-(azetidin-1-ylmethyl)-1-methyl-1H-indol-5-yl)-5-ethyl-4-hydroxy-2-oxo-1,2-dihydropyridine-3-carboxylic acid], the MIC was less than 1 µg/mL in assay [1]; less than 1 µg/mL in assay [2]; 3.5 to 12.5 µg/mL (≈ 9.18 to 32.8 µM) in assay [3]; less than 1 µg/mL in assay [4]; less than 1 µg/mL in assay [5]; 3.5 to 12.5 µg/mL (≈ 9.18 to 32.8 µM) in assay [6]. Moreover, the MIC is 1 to 3.5 µg/mL (≈ 2.62 to 9.18 µM) in the assay with E. coli LZ3111; less than 1 µg/mL in the assay on E. coli 25922; 1 to 3.5 µg/mL (≈ 2.62 to 9.18 µM) in the assay on A. baumannii MXX2240; 12.5 to 150 µg/mL (≈ 32.8 to 393 µM) in the assay with K. pneumoniae MXX1232; 3.5 to 12.5 µg/mL (≈ 9.18 to 32.8 µM) with E. coli ELZ4000; 3.5 to 12.5 µg/mL (≈ 9.18 to 32.8 µM) against E. coli ELZ4251. For the same compound, the figures for the MIC in assay [7] and in [8] were less than 1 µg/mL and 3.5 to 12.5 µg/mL (≈ 9.18 to 32.8 µM), respectively.
As to `CCc1c(-c2ccc3c(c2)cc(CN2CC(O)C2)n3C)[nH]c(=O)c(C(=O)O)c1O` [Cpd 187, 5-ethyl-4-hydroxy-6-(2-((3-hydroxyazetidin-1-yl)methyl)-1-methyl-1H-indol-5-yl)-2-oxo-1,2-dihydropyridine-3-carboxylic acid], the MIC in [1] is 1 to 3.5 µg/mL (≈ 2.52 to 8.81 µM); in assay [2], 1 to 3.5 µg/mL (≈ 2.52 to 8.81 µM); in assay [3] it was less than 1 µg/mL; in [4], less than 1 µg/mL; in [5], less than 1 µg/mL; in assay [6], 3.5 to 12.5 µg/mL (≈ 8.81 to 31.5 µM). For the same compound, the MIC in the assay on E. coli LZ3111 is 1 to 3.5 µg/mL (≈ 2.52 to 8.81 µM); in the assay on E. coli 25922, less than 1 µg/mL; with A. baumannii MXX2240 it was 12.5 to 150 µg/mL (≈ 31.5 to 377 µM); in the assay with K. pneumoniae MXX1232, 12.5 to 150 µg/mL (≈ 31.5 to 377 µM); in the assay on E. coli ELZ4000, 12.5 to 150 µg/mL (≈ 31.5 to 377 µM); in the assay with E. coli ELZ4251, 3.5 to 12.5 µg/mL (≈ 8.81 to 31.5 µM). The MIC in assay [7] is less than 1 µg/mL; in assay [8] it was 12.5 to 150 µg/mL (≈ 31.5 to 377 µM).
For the compound `CCc1c(-c2ccc3c(c2)cc(CN2CC(N)C2)n3C)[nH]c(=O)c(C(=O)O)c1O` [Cpd 188, 6-(2-((3-aminoazetidin-1-yl)methyl)-1-methyl-1H-indol-5-yl)-5-ethyl-4-hydroxy-2-oxo-1,2-dihydropyridine-3-carboxylic acid], the MIC in assay [1] was 12.5 to 150 µg/mL (≈ 31.5 to 378 µM); in assay [2], 12.5 to 150 µg/mL (≈ 31.5 to 378 µM); in [3], 3.5 to 12.5 µg/mL (≈ 8.83 to 31.5 µM); in assay [4] it was 3.5 to 12.5 µg/mL (≈ 8.83 to 31.5 µM); in assay [5], 3.5 to 12.5 µg/mL (≈ 8.83 to 31.5 µM); in [6], 12.5 to 150 µg/mL (≈ 31.5 to 378 µM). The MIC in the assay on E. coli LZ3111 is 1 to 3.5 µg/mL (≈ 2.52 to 8.83 µM); in the assay with E. coli 25922, less than 1 µg/mL; in the assay on A. baumannii MXX2240 it was 12.5 to 150 µg/mL (≈ 31.5 to 378 µM); in the assay on K. pneumoniae MXX1232, 12.5 to 150 µg/mL (≈ 31.5 to 378 µM); in the assay on E. coli ELZ4000, 12.5 to 150 µg/mL (≈ 31.5 to 378 µM); in the assay with E. coli ELZ4251, 12.5 to 150 µg/mL (≈ 31.5 to 378 µM). Also, the MIC is less than 1 µg/mL in [7] and 12.5 to 150 µg/mL (≈ 31.5 to 378 µM) in [8].
With `CCc1c(-c2ccc3c(c2)cc(CN2CC(N(C)C)C2)n3C)[nH]c(=O)c(C(=O)O)c1O` [Cpd 189, 6-(2-((3-(dimethylamino)azetidin-1-yl)methyl)-1-methyl-1H-indol-5-yl)-5-ethyl-4-hydroxy-2-oxo-1,2-dihydropyridine-3-carboxylic acid], the MIC was 1 to 3.5 µg/mL (≈ 2.36 to 8.24 µM) in assay [1]; 1 to 3.5 µg/mL (≈ 2.36 to 8.24 µM) in assay [2]; less than 1 µg/mL in [3]; less than 1 µg/mL in [4]; less than 1 µg/mL in assay [5]; 12.5 to 150 µg/mL (≈ 29.4 to 353 µM) in [6]. In addition, the MIC fell in the range of 3.5 to 12.5 µg/mL (≈ 8.24 to 29.4 µM) in the assay with E. coli LZ3111; 1 to 3.5 µg/mL (≈ 2.36 to 8.24 µM) with E. coli 25922; 12.5 to 150 µg/mL (≈ 29.4 to 353 µM) with A. baumannii MXX2240; 12.5 to 150 µg/mL (≈ 29.4 to 353 µM) in the assay on K. pneumoniae MXX1232; 12.5 to 150 µg/mL (≈ 29.4 to 353 µM) in the assay on E. coli ELZ4000; 3.5 to 12.5 µg/mL (≈ 8.24 to 29.4 µM) in the assay with E. coli ELZ4251. Also, the values for the MIC in assay [7] and in [8] were less than 1 µg/mL and 3.5 to 12.5 µg/mL (≈ 8.24 to 29.4 µM), respectively.
Consider `CCc1c(-c2ccc3c(c2)cc(CN2CCCCC2)n3C)[nH]c(=O)c(C(=O)O)c1O` [Cpd 192, 5-ethyl-4-hydroxy-6-(1-methyl-2-(piperidin-1-ylmethyl)-1H-indol-5-yl)-2-oxo-1,2-dihydropyridine-3-carboxylic acid], for which the MIC in assay [1] is 1 to 3.5 µg/mL (≈ 2.44 to 8.55 µM); in assay [2] it was 1 to 3.5 µg/mL (≈ 2.44 to 8.55 µM); in assay [3], less than 1 µg/mL; in [4] it was less than 1 µg/mL; in [5], less than 1 µg/mL; in assay [6], 12.5 to 150 µg/mL (≈ 30.5 to 366 µM). The MIC in the assay on E. coli LZ3111 was 1 to 3.5 µg/mL (≈ 2.44 to 8.55 µM); with E. coli 25922, less than 1 µg/mL; in the assay with A. baumannii MXX2240, 1 to 3.5 µg/mL (≈ 2.44 to 8.55 µM); in the assay on K. pneumoniae MXX1232, 12.5 to 150 µg/mL (≈ 30.5 to 366 µM); in the assay with E. coli ELZ4000, 12.5 to 150 µg/mL (≈ 30.5 to 366 µM); against E. coli ELZ4251, 3.5 to 12.5 µg/mL (≈ 8.55 to 30.5 µM). Further, the MIC is less than 1 µg/mL in assay [7] and 3.5 to 12.5 µg/mL (≈ 8.55 to 30.5 µM) in assay [8].
